Data set [1] concerns tumor angiogenesis in hamster cheek pouches. The following applies: Shubik et al. 1976, cited from earlier work.
Data set [2] relates to capillary growth; tumors. The following applies: cited from earlier work.
Data set [3] concerns tumor angiogenesis in rabbit corneas. The following applies: Gross et al. 1981; cited from earlier work.
Data set [4] is described as follows: conductivity measurements in deionized water. It counts as physicochemical. The text has this: Conductivity is an accepted method for measuring the degree of ionic substitution and can be used to evidence the addition of a charged group, such as sulfate to a compound. […] Results of conducting measurements obtained in deionized water having a background conductivity of 2.5 (±0.2)×[…] mho/cm are shown in Table I.

The format of data set [5] is physicochemical. Conditions: water. The procedure:
The substituted CD sulfates useful in the present invention are highly hydrophilic and therefore very water soluble, with a solubility of at least 20 gm/100 ml in water at 0° C. Without wishing to be bound by theory, we believe that a highly hydrophilic character is important to allow interaction with cellular surfaces. We also believe a very high water solubility of the derivative is an important factor which cooperatively interacts with the inherent complexing ability of the CD structure to provide effective inhibition of angiogenesis with an exogenous steroid, as provided by this invention. We believe that the hydrophilic activity is roughly indicated by the affinity to water, as measured by water solubility. It is important to measure the same at 0° C. since at higher temperatures the most suitable derivatives have solubilities so high that it is difficult to obtain meaningful measurements.

The nature of data set [6]: dye staining analysis for high density sulfate saccharides (Alcian Blue, alumina TLC plate). It counts as physicochemical. The following applies: 0.8 mg/ml sample, 1 μl spot; 0.5 mg/ml Alcian Blue, 0.25M acetate buffer, 5.6 pH. As for the experimental part:
Such complexing behavior has been utilized in histology, for selective staining to indicate high sulfur natural saccharides such as heparin (Snow et al., 1987, Human Pathology 18:506-510 and Dorling, 1969, Med. Lab. Techn. 26:124-130).
The following procedure was used to detect the presence of high density sulfate groups. An alumina TLC plate (Analtech, Newark, Del.) was spotted with a drop (1 μl) of a sample (0.8 mg/ml) to be tested. The spot or spots were dried for 10 minutes at about 60° C. Aqueous solution of 0.5 mg/ml of Alcian Blue (8GX, Aldrich), buffered with 0.25M acetate buffer at 5.6 pH is allowed to rise along the plate up to and past the test spot.

`C[C@H]1C[C@@H]2[C@H]([C@@H](O)C[C@@]3(C)[C@H]2CC[C@]3(O)C(=O)CO)[C@@]2(C)C=CC(=O)C=C12` [6 α-methyl prednisolone]: the tumor growth result in data set [1] is “tumor growth was not stopped”. In data set [1] (under certain conditions), the “suppression of tumor angiogenesis” value was “partially suppressed tumor angiogenesis”.
Turning to `C[C@]12CCC(=O)C=C1CC[C@@H]1[C@@H]2C(=O)C[C@@]2(C)[C@H]1CC[C@]2(O)C(=O)CO` [cortisone, 17 alpha, 21-dihydroxy-4-pregene-3,11,20-trione], in data set [2] (cortisone by itself), the “inhibition of capillary growth” value was “does not have the ability to inhibit capillary growth”. The tumor growth entry in data set [2] (large amounts of cortisone, many other publications) is “continued growth of tumors”. The “inhibition of tumor angiogenesis” value in data set [3] is on record as “to a lesser extent cortisone, inhibited tumor angiogenesis”.
In the case of `C[C@@H]1C[C@H]2[C@@H]3CCC4=CC(=O)C=C[C@]4(C)[C@@]3(F)[C@@H](O)C[C@]2(C)[C@@]1(O)C(=O)CO` [dexamethasone], the “inhibition of tumor angiogenesis” value in data set [3] is “inhibited tumor angiogenesis”.
Regarding `C[C@]12CC[C@@H]3c4ccc(O)cc4CC[C@H]3[C@@H]1CC[C@@H]2O` [estradiol], in data set [3], the “inhibition of tumor angiogenesis” value is “ineffective”.
On to `CC(=O)[C@@]1(O)CC[C@H]2[C@@H]3C[C@H](C)C4=CC(=O)CC[C@]4(C)[C@H]3CC[C@@]21C` [medroxyprogestrone], for which, in data set [3], the “inhibition of tumor angiogenesis” value is recorded as “inhibited tumor angiogenesis”.
`C[C@]12CC[C@H]3[C@@H](CCC4=CC(=O)CC[C@@]43C)[C@@H]1CC[C@@H]2O` [testosterone]: the “inhibition of tumor angiogenesis” value in data set [3] is given as “ineffective”.
With `OC[C@H]1O[C@@H]2O[C@H]3[C@H](O)[C@@H](O)[C@@H](O[C@H]4[C@H](O)[C@@H](O)[C@@H](O[C@H]5[C@H](O)[C@@H](O)[C@@H](O[C@H]6[C@H](O)[C@@H](O)[C@@H](O[C@H]7[C@H](O)[C@@H](O)[C@@H](O[C@H]8[C@H](O)[C@@H](O)[C@@H](O[C@H]1[C@H](O)[C@H]2O)O[C@@H]8CO)O[C@@H]7CO)O[C@@H]6CO)O[C@@H]5CO)O[C@@H]4CO)O[C@@H]3CO` [β-cyclodextrin], in data set [4], the Conductivity result is recorded as “immeasurable”.
Same read-out and setting: next, “n-tetrapropoxy-β-cyclodextrin [n-tetrapropoxy β-cyclodextrin]”: “immeasurable”.
The compound n-tetrapropoxy-β-cyclodextrin sulfate had a solubility in data set [5] of 37 gm/100 ml H2O. The “Alcian Blue stain” value in data set [6] is given as “generate an Alcian Blue stain”. Also, the Conductivity in data set [4] is listed as 4.5 10^-4 mho/cm per mg/ml.
On to β-cyclodextrin tetradecasulfate, for which the “Alcian Blue stain” value in data set [6] was “generate an Alcian Blue stain”. In data set [4] (average of 2 samples), the “Conductivity (average of 2 samples)” value was 4.6 10^-4 mho/cm per mg/ml.
